{"source": "DBAASP", "test_in_all_cases": "≥ marks a high value that may be exact or a test limit, other limits are often not marked, values filed in µg/mL are converted to µM", "key": {"[1]": {"system": "Staphylococcus aureus SH1000"}, "[2]": {"system": "Salmonella enterica subsp. enterica serovar Typhimurium ATCC 14028"}, "[3]": {"system": "Staphylococcus aureus ATCC 6538"}, "[4]": {"system": "Escherichia coli CICC 10670"}, "[5]": {"system": "Bacillus subtilis CMCC 63501"}, "[6]": {"system": "Listeria monocytogenes ATCC 19115"}, "Escherichia coli TOP 10": {"system": "Escherichia coli TOP 10"}, "[7]": {"system": "Salmonella enterica ATCC 6539"}, "[8]": {"system": "Acinetobacter baumannii ATCC BAA-747"}, "[9]": {"system": "Escherichia coli ATCC 25922"}, "[10]": {"system": "Enterococcus faecium ATCC 700221"}, "[11]": {"system": "Klebsiella pneumoniae ATCC 700603"}, "[12]": {"system": "Staphylococcus aureus ATCC 43300"}, "[13]": {"system": "Pseudomonas aeruginosa ATCC 27853"}, "[14]": {"system": "Pseudomonas aeruginosa 15159"}, "[15]": {"system": "Staphylococcus aureus FDA 486"}, "[16]": {"system": "Staphylococcus aureus ATCC 29213"}, "[17]": {"system": "Staphylococcus aureus 2844"}, "[18]": {"system": "Candida albicans FRR 5580"}, "[19]": {"system": "Pseudomonas aeruginosa ATCC 9027"}, "[20]": {"system": "Staphylococcus aureus ATCC 25923"}, "Vibrio anguillarum": {"system": "Vibrio anguillarum"}, "Aeromonas salmonicida": {"system": "Aeromonas salmonicida"}, "[21]": {"system": "Klebsiella pneumoniae ATCC BAA-1705"}, "Escherichia coli W3110": {"system": "Escherichia coli W3110"}, "[22]": {"system": "Staphylococcus aureus NCTC 12981"}, "[23]": {"system": "Escherichia coli NCTC 10418"}, "Bacillus subtilis 168": {"system": "Bacillus subtilis 168"}, "[24]": {"system": "Staphylococcus aureus NRS 72"}, "[25]": {"system": "Staphylococcus aureus USA 300"}, "[26]": {"system": "Pseudomonas aeruginosa PAO1"}, "[27]": {"system": "Escherichia coli DH5alpha"}, "[28]": {"system": "Mycobacterium tuberculosis H37Ra"}}, "data": [{"compound": "CC[C@H](C)[C@H](NC(=O)[C@H](CC(=O)O)NC(=O)[C@H](Cc1ccccc1)NC(=O)[C@H](CC(C)C)NC(=O)[C@@H](N)CCCCN)C(=O)N[C@H](C(=O)N[C@@H](CCCCN)C(=O)N[C@@H](CCCCN)C(=O)N[C@H](C(=O)N[C@H](C(=O)NCC(=O)N[C@@H](C)C(=O)N[C@@H](CC(C)C)C(=O)NCC(N)=O)C(C)C)C(C)C)C(C)C", "note": "[KLFDIVKKVVGALG]", "values": [{"measurement": "MIC", "setting": "[1]", "value": "≥ 100", "unit": "µM"}]}, {"compound": "CC(C)C[C@H](NC(=O)[C@H](Cc1ccccc1)NC(=O)[C@@H](NC(=O)[C@H](CC(C)C)NC(=O)[C@H](CC(=O)O)NC(=O)[C@H](CCCCN)NC(=O)[C@H](C)NC(=O)[C@@H](NC(=O)[C@H](CC(C)C)NC(=O)[C@@H](NC(=O)[C@H](C)N)[C@@H](C)O)[C@@H](C)O)[C@@H](C)O)C(=O)N[C@@H](CCC(N)=O)C(=O)N[C@@H](CC(=O)O)C(=O)N[C@@H](Cc1ccc(O)cc1)C(=O)N[C@@H](CCCCN)C(=O)N[C@@H](CCCCN)C(=O)N[C@H](C(=O)N[C@@H](CCCCN)C(=O)N[C@@H](CCCCN)C(=O)N[C@@H](CCCN=C(N)N)C(=O)N[C@H](C(=O)N[C@@H](CCCCN)C(=O)O)C(C)C)[C@@H](C)O", "note": "[ATLTAKDLTFLQDYKKTKKRVK]", "values": [{"measurement": "MIC", "setting": "[2]", "value": 20, "unit": "µM"}, {"measurement": "MIC", "setting": "[3]", "value": 20, "unit": "µM"}, {"measurement": "MIC", "setting": "[4]", "value": "≥ 40", "unit": "µM"}, {"measurement": "MIC", "setting": "[5]", "value": 10, "unit": "µM"}, {"measurement": "MIC", "setting": "[6]", "value": 20, "unit": "µM"}]}, {"compound": "CC[C@H](C)[C@H](N)C(=O)N[C@@H](CC(C)C)C(=O)N1CCC[C@H]1C(=O)N[C@@H](CC(C)C)C(=O)N[C@@H](CC(C)C)C(=O)N[C@@H](CCCCN)C(=O)N[C@@H](CCCCN)C(=O)N[C@@H](Cc1ccccc1)C(=O)NCC(=O)N[C@@H](CCCCN)C(=O)N[C@@H](CCCCN)C(=O)N[C@@H](Cc1ccccc1)C(=O)NCC(=O)N[C@@H](CCCCN)C(=O)N[C@@H](CCCCN)C(=O)N[C@H](C(=O)N[C@@H](Cc1c[nH]c2ccccc12)C(=O)N[C@@H](CCCCN)C(=O)N[C@@H](C)C(=O)N[C@@H](CC(C)C)C(N)=O)C(C)C", "note": "[ILPLLKKFGKKFGKKVWKAL]", "values": [{"measurement": "MIC", "setting": "Escherichia coli TOP 10", "value": 10.7, "unit": "µM"}]}, {"compound": "NC(=O)[C@H](CCCN=C(N)N)NC(=O)[C@H](CS)NC(=O)[C@H](Cc1ccc(O)cc1)NC(=O)[C@H](Cc1c[nH]c2ccccc12)NC(=O)[C@H](CCCN=C(N)N)NC(=O)[C@@H](N)Cc1c[nH]c2ccccc12", "note": "[WRWYCR]", "values": [{"measurement": "MIC", "setting": "[7]", "value": 8, "unit": "µM"}, {"measurement": "MIC", "setting": "[8]", "value": "≥ 132", "unit": "µM"}, {"measurement": "MIC", "setting": "[9]", "value": 17, "unit": "µM"}, {"measurement": "MIC", "setting": "[10]", "value": 8, "unit": "µM"}, {"measurement": "MIC", "setting": "[11]", "value": 66, "unit": "µM"}, {"measurement": "MIC", "setting": "[12]", "value": 66, "unit": "µM"}, {"measurement": "MIC", "setting": "[13]", "value": 33, "unit": "µM"}]}, {"compound": "CC[C@H](C)[C@H](NC(=O)[C@H](CCCN=C(N)N)NC(=O)[C@H](CCC(N)=O)NC(=O)[C@@H](NC(=O)[C@@H](NC(=O)[C@H](CCCN=C(N)N)NC(=O)[C@H](CCCCN)NC(=O)[C@H](Cc1ccccc1)NC(=O)[C@H](CCC(=O)O)NC(C)=O)[C@@H](C)CC)C(C)C)C(=O)N[C@@H](CCCCN)C(=O)N[C@@H](CC(=O)O)C(=O)N[C@@H](Cc1ccccc1)C(=O)N[C@@H](CC(C)C)C(=O)N[C@@H](CCCN=C(N)N)C(=O)N[C@@H](CC(N)=O)C(=O)N[C@@H](CC(C)C)C(=O)N[C@H](C(N)=O)C(C)C", "note": "[EFKRIVQRIKDFLRNLV]", "values": [{"measurement": "MIC", "setting": "[14]", "value": 10, "unit": "µM"}, {"measurement": "MIC", "setting": "[15]", "value": 5, "unit": "µM"}, {"measurement": "MIC", "setting": "[16]", "value": 10, "unit": "µM"}, {"measurement": "MIC", "setting": "[17]", "value": 5, "unit": "µM"}, {"measurement": "MIC", "setting": "[13]", "value": 10, "unit": "µM"}]}, {"compound": "NC(=O)[C@H](CCCN=C(N)N)NC(=O)[C@H](CCCN=C(N)N)NC(=O)[C@H](Cc1c[nH]c2ccccc12)NC(=O)[C@H](Cc1c[nH]c2ccccc12)NC(=O)[C@H](CCCN=C(N)N)NC(=O)[C@H](Cc1c[nH]c2ccccc12)NC(=O)[C@H](Cc1c[nH]c2ccccc12)NC(=O)[C@H](CCCN=C(N)N)NC(=O)[C@H](Cc1c[nH]c2ccccc12)NC(=O)[C@H](CCCN=C(N)N)NC(=O)[C@H](CCCN=C(N)N)NC(=O)[C@H](CCCN=C(N)N)NC(=O)[C@@H](N)CCCN=C(N)N", "note": "[RRRRWRWWRWWRR]", "values": [{"measurement": "MIC", "setting": "[18]", "value": "≥ 114", "unit": "µM"}, {"measurement": "MIC", "setting": "[19]", "value": 29.1, "unit": "µM"}, {"measurement": "MIC", "setting": "[9]", "value": 29.1, "unit": "µM"}, {"measurement": "MIC", "setting": "[20]", "value": 29.1, "unit": "µM"}]}, {"compound": "CC(C)[C@H](NC(=O)[C@H](CCC(=O)O)NC(=O)[C@H](C)N)C(=O)N[C@@H](C)C(=O)N1CCC[C@H]1C(=O)N[C@@H](C)C(=O)N1CCC[C@H]1C(=O)N[C@@H](C)C(=O)N[C@@H](C)C(=O)N[C@@H](C)C(=O)N[C@@H](C)C(=O)N1CCC[C@H]1C(=O)N[C@@H](C)C(=O)N[C@@H](CCCCN)C(=O)N[C@@H](C)C(=O)N1CCC[C@H]1C(=O)N[C@@H](CCCCN)C(=O)N[C@@H](CCCCN)C(=O)N[C@@H](CCCCN)C(=O)N[C@@H](C)C(=O)N[C@@H](C)C(=O)N[C@@H](C)C(=O)N[C@@H](CCCCN)C(=O)N1CCC[C@H]1C(=O)N[C@@H](CCCCN)C(=O)N[C@@H](CCCCN)C(N)=O", "note": "[AEVAPAPAAAAPAKAPKKKAAAKPKK]", "values": [{"measurement": "MIC", "setting": "Vibrio anguillarum", "value": "≥ 413", "unit": "µM"}, {"measurement": "MIC", "setting": "Aeromonas salmonicida", "value": "≥ 413", "unit": "µM"}]}, {"compound": "CC[C@H](C)[C@H](N)C(=O)N[C@@H](CC(C)C)C(=O)N[C@@H](Cc1c[nH]c2ccccc12)C(=O)N[C@@H](C)C(=O)N[C@@H](CS)C(=O)N[C@@H](Cc1c[nH]c2ccccc12)C(=O)NCC(=O)N[C@@H](CC(C)C)C(=O)N[C@@H](CCCCN)C(=O)N[C@@H](CC(C)C)C(=O)N[C@@H](CC(C)C)C(=O)N[C@@H](CCCN=C(N)N)C(=O)N[C@@H](Cc1ccc(O)cc1)C(=O)N[C@@H](CCCN=C(N)N)C(=O)N[C@@H](CCCN=C(N)N)C(=O)N[C@H](C(=O)N[C@@H](Cc1ccc(O)cc1)C(=O)O)[C@@H](C)CC", "note": "[ILWACWGLKLLRYRRIY]", "values": [{"measurement": "MIC", "setting": "[21]", "value": "≥ 128", "unit": "µM"}, {"measurement": "MIC", "setting": "Escherichia coli W3110", "value": 16, "unit": "µM"}]}, {"compound": "NCCCC[C@H](NC(=O)[C@H](Cc1c[nH]c2ccccc12)NC(=O)[C@H](CCCCN)NC(=O)[C@@H](N)Cc1c[nH]c2ccccc12)C(=O)N[C@@H](Cc1c[nH]c2ccccc12)C(N)=O", "note": "[WKWKW]", "values": [{"measurement": "MIC", "setting": "[22]", "value": "≥ 154", "unit": "µM"}, {"measurement": "MIC", "setting": "[23]", "value": "≥ 154", "unit": "µM"}]}, {"compound": "CC(C)C[C@H](NC(=O)[C@H](Cc1c[nH]c2ccccc12)NC(=O)[C@H](CCCCN)NC(=O)[C@H](CCCN=C(N)N)NC(=O)[C@H](Cc1c[nH]c2ccccc12)NC(=O)[C@@H](NC(=O)CNC(=O)[C@@H](NC(=O)[C@H](Cc1c[nH]c2ccccc12)NC(=O)[C@H](CCCN=C(N)N)NC(=O)[C@H](CCCCN)NC(=O)[C@H](Cc1c[nH]c2ccccc12)NC(=O)[C@@H](N)CC(C)C)C(C)C)C(C)C)C(N)=O", "note": "[LWKRWVGVWRKWL]", "values": [{"measurement": "MIC", "setting": "Bacillus subtilis 168", "value": 0.6, "unit": "µM"}, {"measurement": "MIC", "setting": "[24]", "value": 5, "unit": "µM"}, {"measurement": "MIC", "setting": "[25]", "value": 7, "unit": "µM"}, {"measurement": "MIC", "setting": "[26]", "value": 20, "unit": "µM"}, {"measurement": "MIC", "setting": "[27]", "value": 10, "unit": "µM"}, {"measurement": "MIC", "setting": "[28]", "value": 20, "unit": "µM"}]}]}
